Test results published in patent publication US20160279190A1, “MODULATION OF AXON DEGENERATION” (GENENTECH, INC., priority 2008, published 2016).

Test system: sympathetic neurons
Experiment: toxin-induced degeneration of sympathetic neurons, MTT assay
Type: cell-based, rat
Details: 24 hour treatment with the toxin alone
Method: Cortical neurons plated for 3-4 days were treated with 300 nM vincristine, a microtubule destabilizer, for 6-72 hours. NGF withdrawal-induced apoptosis and degeneration were assayed between 4-36 hours after the final treatment. Apoptosis and degeneration were assayed using both the MTT assay and the lactate dehydrogenase assay. The MTT (3-(4,5-dimethylthiazol-2-yl)-2,5-diphenyltetrazolium bromide) assay measures cell viability based on mitochondrial function. MTT was added to a total of one tenth of the culture volume to each well and incubated at 37° C. with 5% CO2 for 90-120 minutes. The MTT-containing culture media was aspirated and the cells were resuspended in an equal volume of solubilization solution (10% triton X-100, 1 drop HCl, 50 mL isopropanol). Absorbance (570 and 690 nm) was read using a spectrophotometer. Lactate dehydrogenase (LDH) levels were assayed using a CytoTox non-radioactive LDH assay kit (Promega) to assess the amount of cell death in assays. Fifty μL of media from different treatment conditions were used according to the manufacturer's instructions. […]
Sympathetic cervical ganglia were dissected from postnatal day 1 Sprague-Dawley rats (Charles River Labs) and collected in a dish containing Ultraculture media (Lonza) with 5% fetal bovine serum (Invitrogen). […] The cell slurry was filtered over a […] cell strainer (Falcon) and cell number was counted. […]

SMILES: CC[C@@]1(O)C(=O)OCc2c1cc1n(c2=O)Cc2cc3ccccc3nc2-1 [camptothecin]
- % viability (normalized): 79%
